Assay results reported in patent US9605064B2, “Methods and compositions for treatment of skin disorders” (AbbVie Biotechnology Ltd, priority 2006, dated 2017).
Values joined by “and” are separate entries in the source; they are usually repeats but may differ in a detail not shown here. Identical values can stand only once.

Tests used:
Format in all cases: in vivo, human
[1] = system: patients with severe psoriasis who were non-responders to high-dosage etanercept; experiment: PASI response, open-label adalimumab in non-responders to high-dosage etanercept
Experimental: (§1) Details on clinical course and adverse events were recorded, along with measurements of PASI and Dermatology Life Quality Index (DLQI) at baseline and Weeks 2, 4, 8, and 12.
(§2) This was an open-label prospective evaluation of adalimumab (HUMIRA®, Abbott Laboratories, Abbott Park, Ill., USA). Patients who were non-responders to etanercept were recruited from the Severe Psoriasis Clinic at St John's Institute of Dermatology in London. […] Inclusion criteria included male and female patients more than 18 years of age with plaque psoriasis (Table 98). The study was approved by St Thomas' Research Ethics Committee, and informed consent was obtained from all participants.
The study period was 12 weeks. […] Patients were able to withdraw from the study at any stage. They were permitted to continue topical treatments at stable dosages throughout the study, but could not use concomitant systemic therapy for psoriasis.
(§3) At each clinical visit PASI, DLQI, and percentage body surface area (% BSA) affected were assessed and recorded. In addition, patients received medical assessments together with monitoring laboratory investigations (FIG. 11).
The secondary efficacy endpoint was PASI 75 response rate at Week 12.

[2] = system: patients with severe psoriasis who were non-responders to high-dosage etanercept; experiment: DLQI, open-label adalimumab in non-responders to high-dosage etanercept
Experimental: as §1, §3

[3] = system: patients with severe psoriasis who were non-responders to high-dosage etanercept; experiment: ESR and CRP, open-label adalimumab in non-responders to high-dosage etanercept; details: Week 12; individual patients 1-5 (c1-c5); weekly adalimumab
Text: as §2

[4] = system: patients with moderate to severe chronic plaque psoriasis; experiment: PASI response and PGA, 120-week open-label extension study; details: 40 mg eow, as observed
Text: Exclusion criteria included prior TNF-antagonist therapy.

[5] = Week 2, individual patients 1-5 (c1-c5), weekly adalimumab
[6] = Week 4, individual patients 1-5 (c1-c5), weekly adalimumab
[7] = Week 8, individual patients 1-5 (c1-c5), weekly adalimumab
[8] = Week 12, individual patients 1-5 (c1-c5), weekly adalimumab
[9] = individual patients 1-5 (c1-c5), weekly adalimumab

## Adalimumab: a human anti-TNF mAb, described in U.S. Pat. No. 6,090,382 as D2E7 (HUMIRA, Abbott Laboratories)
[1]; 40 mg weekly, Week 12
  patients who achieved at least PASI 50: 80%
[1]; Patient 1
  PASI 50 response: non-responder
[1]; Patient 2
  time at which PASI 50 was achieved: ≤ 8 Week
  time at which PASI 75 was reached: 12 Week
[1]; Patient 3
  time at which PASI 50 was achieved: ≤ 4 Week
[1]; Patient 4
  time at which PASI 50 was achieved: ≤ 2 Week
  time at which PASI 75 was reached: 4 Week
[1]; Patient 5
  time at which PASI 50 was achieved: ≤ 12 Week
[1]; [5]
  PASI: 23.4 and 23.6 and 21.6 and 11.2 and 22.9
[1]; [6]
  PASI: 26.7 and 20.1 and 8.70 and 7.00 and 23.6
[1]; [7]
  PASI: 18.2 and 12.3 and 8.40 and 19.6
[1]; [8]
  PASI: 21.2 and 6.30 and 3.3 and 7.10 and 15.2
[1]; [9]
  % Improvement in PASI from baseline to Week 12: 6% and 82% and 93% and 52% and 53%
[2]; [5]
  DLQI: 17 and 10 and 30 and 9 and 5
[2]; [6]
  DLQI: 16 and 5 and 28 and 4 and 7
[2]; [7]
  DLQI: 15 and 3 and 0 and 9
[2]; [8]
  DLQI: 6 (2×) and 1 and 26 and 2
[2]; five patients, Week 12
  mean decrease in DLQI score: 8.8
[2]; [9]
  % Improvement in DLQI from baseline to Week 12: 68% and 91% and 13% and 82% and 57%
[3]
  CRP: 7 mg/L and < 5 mg/L (3×) and recorded/<5 mg/L
  ESR: 13 mm/hr and 12 mm/hr (2×) and 2 mm/hr
[4]; Week 12
  PASI 50 response, % Patients: 78.7%
  PASI 75 response, % Patients: 56.2%
  PASI 90 response, % Patients: 29.2%
  PASI 100 response, % Patients: 11.2%
[4]; Week 24
  PASI 50 response, % Patients: 86.7%
  PASI 75 response, % Patients: 74.7%
  PASI 90 response, % Patients: 52%
  PASI 100 response, % Patients: 20%
[4]; Week 48
  PASI 50 response, % Patients: 96.7%
  PASI 75 response, % Patients: 81.7%
  PASI 90 response, % Patients: 61.7%
  PASI 100 response, % Patients: 31.7%
[4]; Week 72
  PASI 50 response, % Patients: 96.2%
  PASI 75 response, % Patients: 73.1%
  PASI 90 response, % Patients: 53.8%
  PASI 100 response, % Patients: 25%
[4]; Week 96
  PASI 50 response, % Patients: 92.5%
  PASI 75 response, % Patients: 75.5%
  PASI 90 response, % Patients: 52.8%
  PASI 100 response, % Patients: 24.5%
[4]; Week 120
  PASI 50 response, % Patients: 93.9%
  PASI 75 response, % Patients: 77.6%
  PASI 90 response, % Patients: 53.1%
  PASI 100 response, % Patients: 28.6%
